Results on 10 compounds are retold here after ChEMBL document CHEMBL1201862, “PubChem BioAssay data set” (2004).

Among the test systems are HCC 2998; K562; COLO 205; NCI-H23; SW-620; SNB-19; RPMI-8226; SN12C; HOP-92; MDA-N; SF-295; SF-268; OVCAR-4; EKVX; NCI-H226; UO-31; NCI/ADR-RES; A549; A498; PC-3.
What all share (experiment): inhibition of tumour cell growth, NCI panel, 48 h

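Tested at 5 concentrations; 48 h exposure; 96-well plates; endpoints linearly interpolated, else capped at highest concentration. GI50 marks 50% less growth.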 The source made the active and inactive calls. No stated cut-off is given here; in the data, active = GI50 up to about 1.1 µM and inactive = higher.

On to `NS(=O)(=O)c1ccc(NC(=O)c2ccc3nc4ccccc4c(Nc4ccc(S(N)(=O)=O)cc4)c3c2)cc1`, for which the GI50 with HCC 2998 is > 100 µM (inactive); in the assay on K562 it was > 100 µM (inactive); in the assay on COLO 205 it was > 100 µM (inactive); in the assay with NCI-H23 it was > 100 µM (inactive); in the assay with SW-620, > 100 µM (inactive); in the assay on SNB-19, 42.1 µM (inactive). Besides, the GI50 in the assay on RPMI-8226 is > 100 µM (inactive); in the assay with SN12C, > 100 µM (inactive); in the assay with HOP-92, > 100 µM (inactive); in the assay with MDA-N it was > 100 µM (inactive); in the assay on SF-295, > 100 µM (inactive); in the assay with SF-268, 87.5 µM (inactive). For the same compound, the GI50 with OVCAR-4, in the assay on EKVX, in the assay with NCI-H226, in the assay on UO-31, in the assay on NCI/ADR-RES and in the assay on A549 was > 100 µM (inactive) each time. In addition, the GI50 in the assay on A498 and with PC-3 was > 100 µM (inactive) each time.
Take `CC1(C)COCN1COC1CCCCC1`: the GI50 in the assay with HCC 2998 was > 100 µM (inactive); in the assay on K562, 92.7 µM (inactive); with COLO 205 it was > 100 µM (inactive); in the assay with NCI-H23, > 100 µM (inactive); in the assay with SW-620, > 100 µM (inactive); in the assay on SNB-19, > 100 µM (inactive). Besides, the GI50 in the assay with RPMI-8226, in the assay on SN12C, in the assay with HOP-92, with MDA-N, with SF-295 and in the assay on SF-268 was > 100 µM (inactive) in each case. The GI50 in the assay with OVCAR-4, with EKVX, in the assay with NCI-H226, in the assay with UO-31, in the assay with NCI/ADR-RES and with A549 was > 100 µM (inactive) each time. Besides, the GI50 in the assay with A498 and in the assay on PC-3 was > 100 µM (inactive) throughout.
With `S=C(N/N=C(/c1ccccc1)c1ccccn1)N(Cc1ccccn1)Cc1ccccn1`, the GI50 with HCC 2998 was 1.63 µM (inactive); in the assay on K562, < 0.01 µM (active); with COLO 205 it was < 0.0157 µM (active); in the assay on NCI-H23, 0.108 µM (active); in the assay on SW-620 it was < 0.0277 µM (active); in the assay with SNB-19, 0.444 µM (active). Also, the GI50 with RPMI-8226 was < 0.0302 µM (active); in the assay on SN12C, < 0.01 µM (active); with HOP-92 it was 0.174 µM (active); in the assay with MDA-N, 1.31 µM (inactive); with SF-295, 0.367 µM (active); in the assay with SF-268 it was 0.196 µM (active). Besides, the GI50 is 0.507 µM (active) in the assay with OVCAR-4; 0.0608 µM (active) in the assay on EKVX; < 0.0488 µM (active) with NCI-H226; 0.356 µM (active) with UO-31; 0.0838 µM (active) with NCI/ADR-RES; 0.435 µM (active) in the assay on A549. Moreover, the values for the GI50 with A498 and in the assay with PC-3 were 0.521 µM (active) and 0.0541 µM (active), respectively.
For `Cc1ccc(S(=O)(=O)Nc2nc3ccccc3c(=O)n2C2CCCCC2)cc1`, the GI50 with HCC 2998, in the assay on K562, with COLO 205, with NCI-H23, in the assay on SW-620 and in the assay with SNB-19 was > 100 µM (inactive) in each case. Moreover, the GI50 in the assay on RPMI-8226 is > 100 µM (inactive); in the assay with SN12C, > 100 µM (inactive); with HOP-92 it was 67.5 µM (inactive); in the assay with MDA-N, > 100 µM (inactive); with SF-295, 23.1 µM (inactive); with SF-268, > 100 µM (inactive). Also, the GI50 in the assay with OVCAR-4 is 51.8 µM (inactive); in the assay on EKVX, > 100 µM (inactive); in the assay on NCI-H226, > 100 µM (inactive); in the assay on UO-31 it was > 100 µM (inactive); in the assay on NCI/ADR-RES, > 100 µM (inactive); in the assay with A549, > 100 µM (inactive). The GI50 with A498 and in the assay on PC-3 was > 100 µM (inactive) each time.
As to `C[C@H]1C2Cc3cc(N)ccc3[C@@]1(C)CCN2CCc1ccccc1`, the GI50 with HCC 2998 was 9.08 µM (inactive); in the assay with K562 it was 28.8 µM (inactive); in the assay on COLO 205, 16.8 µM (inactive); in the assay on NCI-H23 it was 32.8 µM (inactive); with SW-620, 64.7 µM (inactive); with SNB-19, > 100 µM (inactive). Besides, the GI50 in the assay on RPMI-8226 was 33.6 µM (inactive); in the assay on SN12C it was > 100 µM (inactive); in the assay on HOP-92 it was 21.4 µM (inactive); in the assay with MDA-N, 66.2 µM (inactive); in the assay on SF-295, 27.4 µM (inactive); in the assay with SF-268, 76 µM (inactive). Besides, the GI50 is 48.2 µM (inactive) with OVCAR-4; 40.6 µM (inactive) in the assay with EKVX; 58.7 µM (inactive) in the assay with NCI-H226; 52 µM (inactive) in the assay with UO-31; 42.3 µM (inactive) with NCI/ADR-RES; 42.7 µM (inactive) in the assay with A549. For the same compound, the GI50 in the assay on A498 is 29.4 µM (inactive); with PC-3, 22.6 µM (inactive).
Consider `O=C1C=CC(=O)C(N(CCO)CCO)=C1.O=C1C=CC2(O)OCCN(CCO)C2=C1`, for which the GI50 in the assay with HCC 2998, with K562, with COLO 205, in the assay with NCI-H23, with SW-620 and in the assay on SNB-19 was > 100 µM (inactive) each time. The GI50 in the assay on RPMI-8226 was 91.6 µM (inactive); with SN12C, > 100 µM (inactive); in the assay on HOP-92, > 100 µM (inactive); in the assay on MDA-N it was > 100 µM (inactive); in the assay with SF-295, > 100 µM (inactive); in the assay on SF-268, > 100 µM (inactive). Also, the GI50 in the assay with OVCAR-4, with EKVX, in the assay with NCI-H226, in the assay with UO-31, with NCI/ADR-RES and in the assay on A549 was > 100 µM (inactive) in each case. For the same compound, the GI50 with A498 and in the assay on PC-3 was > 100 µM (inactive) throughout.
`CC[C@@]1(O)C(=O)OCc2c1cc1n(c2=O)Cc2c-1nc1ccccc1c2/C=N/NC(=O)C[N+](C)(C)C`: the GI50 was 4.59 µM (inactive) in the assay with HCC 2998; 2.86 µM (inactive) with K562; 62.4 µM (inactive) with COLO 205; 0.495 µM (active) in the assay with NCI-H23; 4.99 µM (inactive) with SW-620; 0.75 µM (active) in the assay on SNB-19. In addition, the GI50 was 4.93 µM (inactive) in the assay on RPMI-8226; 0.0857 µM (active) in the assay with SN12C; 3.68 µM (inactive) in the assay with HOP-92; 9.62 µM (inactive) in the assay with MDA-N; 0.56 µM (active) in the assay on SF-295; 0.45 µM (active) in the assay on SF-268. For the same compound, the GI50 was 41.2 µM (inactive) in the assay on OVCAR-4; 47.9 µM (inactive) in the assay with EKVX; 0.802 µM (active) in the assay with NCI-H226; 0.944 µM (active) in the assay on UO-31; 1.65 µM (inactive) in the assay on NCI/ADR-RES; 1.22 µM (inactive) with A549. Also, the GI50 is 7.76 µM (inactive) in the assay on A498 and 9.59 µM (inactive) with PC-3.
As to `O=C(NCCO)c1c(O)c2ccccc2[nH]c1=O`, the GI50 in the assay on HCC 2998, in the assay with K562, in the assay with COLO 205, in the assay on NCI-H23, in the assay on SW-620 and in the assay with SNB-19 was > 100 µM (inactive) each time. Besides, the GI50 in the assay with RPMI-8226, with SN12C, in the assay on HOP-92, in the assay with MDA-N, in the assay with SF-295 and in the assay on SF-268 was > 100 µM (inactive) throughout. Besides, the GI50 with OVCAR-4 was > 100 µM (inactive); in the assay with EKVX, 69.5 µM (inactive); in the assay with NCI-H226 it was > 100 µM (inactive); in the assay with UO-31, 83.6 µM (inactive); in the assay with NCI/ADR-RES it was > 100 µM (inactive); in the assay with A549, > 100 µM (inactive). The GI50 in the assay with A498 and in the assay on PC-3 was > 100 µM (inactive) in each case.
Regarding `O=C1/C(=C/c2ccc(O)c(CN3CCCCC3)c2)CCC/C1=C\c1ccc(O)c(CN2CCCCC2)c1`, the GI50 was 5.64 µM (inactive) in the assay with HCC 2998; 1.99 µM (inactive) in the assay on K562; 2.55 µM (inactive) in the assay with COLO 205; 5.52 µM (inactive) with NCI-H23; 5.52 µM (inactive) in the assay on SW-620; 5.04 µM (inactive) with SNB-19. Further, the GI50 in the assay with RPMI-8226 is 6.85 µM (inactive); with SN12C, 8.79 µM (inactive); in the assay with HOP-92 it was 4.26 µM (inactive); in the assay with MDA-N, 4.66 µM (inactive); in the assay with SF-295, 3.25 µM (inactive); in the assay with SF-268, 3.52 µM (inactive). Besides, the GI50 with OVCAR-4 is 6.81 µM (inactive); in the assay with EKVX it was 8.85 µM (inactive); with NCI-H226, 15.5 µM (inactive); in the assay with UO-31 it was 10.4 µM (inactive); in the assay on NCI/ADR-RES, 2.89 µM (inactive); with A549 it was 16.7 µM (inactive). For the same compound, the results for the GI50 in the assay on A498 and with PC-3 were 12.8 µM (inactive) and 7.05 µM (inactive), respectively.
`C=CC(C)(C)NC(C(=O)N1CCC[C@H]1c1nc(-c2nc(C(=O)OCC=C(C)C)c(C)o2)c(C)o1)C(C)C` (stereo not given in full): the GI50 with HCC 2998 is > 100 µM (inactive); in the assay with K562 it was > 60.7 µM (inactive); in the assay on COLO 205 it was 34 µM (inactive); in the assay with NCI-H23, > 100 µM (inactive); in the assay with SW-620 it was 45.8 µM (inactive); with SNB-19, > 48.6 µM (inactive). In addition, the GI50 with RPMI-8226 was > 100 µM (inactive); with SN12C, > 47.8 µM (inactive); with HOP-92, 23.3 µM (inactive); in the assay on MDA-N, 23.9 µM (inactive); in the assay on SF-295, > 50 µM (inactive); in the assay with SF-268, > 100 µM (inactive). Further, the GI50 with OVCAR-4 was 33.3 µM (inactive); in the assay with EKVX it was > 52 µM (inactive); in the assay with NCI-H226, > 48.8 µM (inactive); in the assay on UO-31, 21.8 µM (inactive); in the assay on NCI/ADR-RES it was > 55 µM (inactive); in the assay with A549, > 58.9 µM (inactive). Moreover, the GI50 was 47.1 µM (inactive) in the assay with A498 and > 64 µM (inactive) in the assay on PC-3.
